Test results: article PMC5989455, “Beta-defensin derived cationic antimicrobial peptides with potent killing activity against gram negative and gram positive bacteria” (BMC Microbiology, 2018)
Bridges are numbered along the chain shown (N, C = ends). Where no end group is shown, it is not given here.

Experiments:
S. aureus (ATCC 29213) = assay type: cell-based, Staphylococcus aureus; details: ATCC 29213, 24 h
Experimental: (§1) Pseudomonas aeruginosa (P. aeruginosa, ATCC 27853) and Staphylococcus aureus (S. aureus, ATCC 29213) were used to evaluate the novel CAMPs’ antimicrobial activity, salt- and protease-resistance, and membrane permeability. Ten multiple-drug resistant P. aeruginosa and ten methicillin-resistant S. pseudintermedius (MRSP) clinical isolates (Table 2) were used to evaluate the antimicrobial efficacy of CAMPs. The clinical isolates were cultured from diagnostic specimens by the microbiology staff at the University of Missouri Veterinary Medical Diagnostic Laboratory as part of standard service. The isolates were donated to the present project with appropriate permission. All bacterial strains were maintained and grown in Luria-Bertani broth or agar (LB, BD Difco™) at 37 °C as described previously.
(§2) Minimum inhibitory concentrations (MICs) were determined primarily based on the guidelines of the Clinical and Laboratory Standards Institute (CLSI). The Muller Hinton (MH) II broth used in MIC assay contained 20–25 mg/L of calcium and 10–12.5 mg/L of magnesium. The procedures were described in previous studies. In brief, two-fold serially diluted CAMPs (2 to 256 μg/ml) were mixed with appropriate bacterial strains at a final concentration of 5 × 10^5 CFU/ml in a 96-well microtiter plate (Nunc™, Thermo Fisher Scientific). Following incubation at 37 °C for 24 h, MIC was recorded. All assays were conducted in triplicate.

mouse red blood cells = assay type: cell-based
Experimental: The hemolytic assay was performed as described previously. Briefly, mouse red blood cells (RBCs, Innovative Research, Novi, MI) were washed three times with phosphate-buffered saline (PBS, pH 7.4), centrifuged at 1000×g for 10 min, and resuspended in PBS to 10% (v/v). The RBCs were treated with CAMPs at various concentrations ranging from 4 to 512 μg/ml (2-fold serial dilutions) at 37 °C for 1 h. PBS and 0.2% Triton X-100 were used as negative and positive controls, respectively. The supernatant was transferred to a 96-well flat-bottomed polystyrene plate (Thermo Fisher Scientific), and the amount of hemoglobin released into the supernatant was determined by measuring the absorbance with a spectrophotometer at 540 nm. Hemolytic activity was expressed as the percentage of hemolysis and calculated using the following equation: hemolysis (%) = (As-A0)/(A100-A0) × 100, where As is the absorbance of the sample, A100 is the absorbance of completely lysed RBCs in 0.2% Triton X-100, and A0 is the absorbance in the complete absence of hemolysis (PBS treatment). The assay was performed in triplicate. The therapeutic index (T.I.) was calculated according to a previously published formula: T.I. = MHC / MICGM [30]. […] The MICGM was the minimum inhibitory concentration of the peptide concentrations against bacterial growth after the geometric mean was calculated. […]

P. aeruginosa = assay type: cell-based, Pseudomonas aeruginosa
Experimental: as §1
as §2, with “All assays were conducted in triplicate.” left out

[1] = test system: Gram-positive bacteria (S. aureus, S. pseudintermedius); assay: Average MIC for Gram-positive bacteria; assay type: cell-based, Staphylococcus spp.; details: average over S. aureus ATCC 29213 and 10 MRSP strains (Gram-positive), ± SD
Experimental: as §2
The hemolytic assay was performed as described previously. […] The supernatant was transferred to a 96-well flat-bottomed polystyrene plate (Thermo Fisher Scientific), and the amount of hemoglobin released into the supernatant was determined by measuring the absorbance with a spectrophotometer at 540 nm. Hemolytic activity was expressed as the percentage of hemolysis and calculated using the following equation: hemolysis (%) = (As-A0)/(A100-A0) × 100, where As is the absorbance of the sample, A100 is the absorbance of completely lysed RBCs in 0.2% Triton X-100, and A0 is the absorbance in the complete absence of hemolysis (PBS treatment). […] The therapeutic index (T.I.) was calculated according to a previously published formula: T.I. = MHC / MICGM [30]. […]

Row | Substance | MIC (S. aureus (ATCC 29213)) | also measured
1 | Ac-LRRLKPLIRPWLRPLRRWWW-NH2 [CAMP-A] | 32 µg/mL | concentration exhibiting hemolytic and cytotoxic activities (mouse red blood cells): ≥ 128 µg/mL
2 | Ac-PIHRRIPPRWPRLKRRW-NH2 [CAMP-t2] | 64 µg/mL | 
3 | Ac-RKFLRRRGEVAHFSQKSLGLYCWWW-NH2 [CAMP-t1] | 64 µg/mL | 
4 | Ac-RRRWRKRRWWW-NH2 [CAMP-B] | 32 µg/mL | 
5 | SPIHACRYQRGVCIPGPCRWPYYRVGSCGSGLKSCCVRNRWA (disulfide 6-35, 13-28, 18-36 (inferred)) [AvBD-6, reference compound] |  | MIC (P. aeruginosa; 24 h): > 256 µg/mL; MICAverage G- (P. aeruginosa; average over 11 P. aeruginosa strains (Gram-negative), ± SD): > 256 µg/mL; MICAverage G+ [1]: ≥256 µg/mL
